Patent publication US8173767B2, “Synthetic peptide vaccines for HIV: the CBD epitope as an effective immunogen to elicit broadly neutralizing antibodies against HIV” (Institut Pasteur, priority 2003, dated 2012)
Ends that are not written are not given here. * marks the point of attachment. Biotin = O=C1N[C@H]2[C@H](CS[C@H]2CCCCC(=O)*)N1

What was measured:
[1] = tested on: rabbits (Fauves de Bourgogne); test: ELISA of sera from rabbit immunized with the C-20 peptide (plates coated with C-20); assay type: in vivo; conditions: rabbit Hermione; after the first 2 injections; serum dilution 1/2000
Description: A biotinylated C-20 peptide was synthesized as in Example 2. After synthesis the biotinylated C-20 peptide was solubilized in water containing 10% DMSO at a concentration of 2 mg/ml. 100 μg of this solution (corresponding to 50 μl) was mixed with 50 μg of streptavidin in 250 μl distilled water. This solution was then mixed with 250 μl of adjuvant; complete Freund's adjuvant (CFA) for the first injection and incomplete Freund's adjuvant (IFA) for the following injections. Rabbits (Fauves de Bourgogne) were injected intramuscularly with 500 μl of the antigen/adjuvant mixture. 10 ml of blood was collected from the rabbits before the first injection of antigen. This serum is referred to as S0 or pre-immune serum.
All sera were tested by ELISA using 2 types of plates (PVC and Maxisorp) coated with the C-20 peptide.

HeLa cells = test: Entry of the CBD-1 peptide into cells (confocal immunofluorescence microscopy); assay type: cell-based
Description: (§1) Several studies in laser scanning confocal immunofluorescence microscopy were conducted to investigate the interaction of the CBD-1 peptide with cells and its effect on Midkine. […] Midkine binds its low affinity receptor, surface-expressed nucleolin, before entry into cells by an active process in which lipid rafts appear to be implicated (34).
On intact cells, the CBD-1 peptide appeared to interact with caveolin at the plasma membrane.
HeLa cells in culture medium were incubated (45 min at 37° C.) with the biotinylated CBD-1 peptide (5 μM). Cells were then washed and fixed with paraformaldehyde/Triton X-100 solution. […] The secondary antibody was Texas Red dye-conjugated donkey anti-rabbit IgG (Jackson ImmunoResearch Laboratories, PA). Confocal microscopy was performed as described previously (6).

caveolin = target: T1, caveolin (Homo sapiens, UniProt Q03135); test: Binding of biotinylated CBD-1 to caveolin in crude MT4 cell extracts (avidine-sepharose, immunoblot)
T1 construct: endogenous in cells
T1 sequence (Q03135 1-178): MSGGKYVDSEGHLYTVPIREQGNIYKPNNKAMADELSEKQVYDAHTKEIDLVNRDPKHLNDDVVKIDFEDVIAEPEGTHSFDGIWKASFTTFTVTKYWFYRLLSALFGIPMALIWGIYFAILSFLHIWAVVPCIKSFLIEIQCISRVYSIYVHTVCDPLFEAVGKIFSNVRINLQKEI
Description: MT4 cells were extracted in buffer containing 10 mM Hepes, pH 7.6, 50 mM KCl, 400 mM NaCl, 1 mM EDTA, protease inhibitor cocktail and 1% Triton X-100®. Extracts were centrifuged at 12,000×g and the supernatants were stored at […]. 100 μl of cell extracts were first diluted with 400 μl of homogenization buffer and left at 4° C. for 10 minutes before centrifuging at 12,000×g.
The diluted supernatants were then incubated at 4° C. in the presence of 0, 2, 5, 10 and 20 μM of the biotinylated CBD-1 peptide. After 90 minutes, 100 μl of avidine-sepharose were added in each sample and the samples were further incubated at 4° C. for 2 hours with gentle shaking. The samples were then washed extensively with PBS and proteins bound to avidine-sepharose were eluted in 100 μl of electrophoresis sample buffer containing SDS and analyzed by SDS-PAGE (using a 12.5% polyacrylamide gel) for immunoblotting with rabbit anti-caveolin 1 antibodies ([…]) as previously described (6).
Cell extracts were first incubated with 50 μM of CBD-1 (+) or without CBD-1 (−) before the addition of 10 μM biotinylated CBD-1 and further processed as above. Lane E represents the analysis of crude cell extracts diluted 1-fold in the electrophoresis sample buffer. […]

[2] = tested on: rabbits (Fauves de Bourgogne); test: ELISA of sera from rabbit immunized with the CBD-1 peptide (plates coated with CBD-1); assay type: in vivo
Description: The biotinylated CBD-1 peptide was solubilized in water containing 10% DMSO at a concentration of 2 mg/ml. 100 μg of this solution (50 μl) was mixed with 50 μg of streptavidin in 250 μl of distilled water. This solution was then mixed with 250 μl of complete Freund's adjuvant (CFA) for the first injection and incomplete Freund's adjuvant (IFA) for the following injections. 10 ml of blood was collected from the rabbits before the first injection of antigen; this serum was referred to as S0 or pre-immune serum.
The rabbits (Fauves de Bourgogne) were injected intramuscularly with 500 μl of the antigen/adjuvant mixture. The following Table 1 presents the injection and bleeding dates of the rabbit named “Aldernay”:
All sera were tested by ELISA using 2 types of plates (PVC and Maxisorp) coated with the CBD-1 peptide. The optical density (OD) was measured at 450 nm. An OD value above 0.20 was considered positive.

Midkine = test: Effect of the CBD-1 peptide on Midkine binding and entry into cells (confocal microscopy); assay type: cell-based
Description: as §1

Q: “DGIWKASFTTFTVTKYWFYR (DGIWKASFTTFTVTKYWFYR) [C-20 peptide]” was tested. Which “antibodies against C-20 in serum (ELISA)” value [1] did it give?
A: significant amount of antibodies against C-20

Q: For “biotinylated CBD-1: CBD-1 peptide with a biotinyl moiety coupled at the N terminus (Biotin-LEQIWNNMTWMQWDK)”, which “localization of the peptide in cells” value (HeLa cells; HeLa cells, 5 μM, 45 min at 37° C.) is on record?
A: localized in the cytoplasm

Q: And the “caveolin purified from crude extracts with the biotinylated peptide” value (caveolin; 0, 2, 5, 10 and 20 μM biotinylated CBD-1, 4° C.)?
A: in a dose dependent manner

Q: And the “capacity to bind caveolin in the presence of excess CBD-1” value (caveolin; 50 μM CBD-1 before 10 μM biotinylated CBD-1)?
A: reduced capacity

Q: Which results are given for “L-E-Q-I-W-N-N-M-T-W-M-Q-W-D-K (LEQIWNNMTWMQWDK) [CBD-1 peptide]”?
A: entry of the peptide into cells (HeLa cells; dependence on incubation temperature): occurred at 37 °C but not at 20 °C; antibodies against CBD-1 in serum (ELISA) ([2]; after the first 3 injections, serum dilution 1/2,000): significant amount of antibodies against CBD-1; immunogenicity of the peptide (anti-CBD-1 antibodies in serum, ELISA) ([2]; rabbit Aldernay, intramuscular, biotinylated peptide with streptavidin in CFA/IFA, OD 450 nm above 0.20 positive): immunogenic; Midkine binding to cells (Midkine): without affecting Midkine binding to cells; entry of Midkine into cells (Midkine): blocks entry of Midkine into cells
